Experimental data: PMC8196714, “Design, Radiosynthesis and Preliminary Biological Evaluation in Mice of a Brain-Penetrant ^18F-Labelled σ2 Receptor Ligand” (International Journal of Molecular Sciences, 2021)

What was measured:
[1] = Lipophilicity (logD7.4), shake-flask method; type: physicochemical; details: n-octanol/PBS pH 7.4, shake-flask, n = 3
Description: (§1) The in vitro stability of [^18F]RM273 was investigated in saline, phosphate-buffered saline (PBS), and TRIS-HCl buffer (50 mM, pH 7.4) at 37 °C for 2 h, and the radioligand remained intact (90%, 94%, and 100%, respectively; saline for 1 h: 95%). The logD7.4 of [^18F]RM273 was experimentally determined by the shake-flask method as 1.78 ± 0.22 (n = 3), which is well within the range of 1–3.5 recommended for brain targeting compounds [43].
LogD7.4 of [^18F]RM273 was experimentally determined in n-octanol/PBS; 0.01 M, pH 7.4) at room temperature by the shake-flask method. The measurement was performed twice in triplicate.

[2] = Quantification of radiometabolites in mouse tissues at 30 min p.i.; type: in vivo, CD-1 mice
Description: From quantitative analysis of the radio-chromatograms, which indicated the presence of solely [^18F]RM273 (>99%; n = 3; Supplemental Information Table S1 and Figure S2), we concluded that upon the presence of an intact BBB, the PET image derived from [^18F]RM273 in the brain was not affected by confounding radiometabolites.
About 30 MBq [^18F]RM273 dissolved in about 150 µL isotonic saline was administered intravenously as a bolus in the tail vein of in awake female CD-1 mice weighing about 33 g (n = 3). At 30 min p.i., the animals were anesthetized and blood was withdrawn by retrobulbar bleeding using glass capillaries. Immediately afterwards, the animals were euthanized by cervical dislocation, and released urine sampled. Blood plasma was obtained from the whole blood sample by centrifugation (2 min, 8000 rpm, room temperature). In addition, the brain, the liver, and the pancreas were isolated and homogenized in 1 mL demineralized water on ice (1000 rpm, 10 strokes; glass vessel, PTFE plunger; Potter S, B. Braun Biotech International, Goettingen, Germany). Bone marrow (n = 2) was isolated by flushing the femur with about 200 µL isotonic saline.
The samples were further processed for subsequent radio-chromatographic analyses. Two consecutive extractions were performed as duplicate for plasma and brain determinations. Plasma and brain samples were added to an ice-cold MeOH/H2O mixture (9:1, v/v). The samples were vortexed for 3 min, incubated on ice for 5 min, and centrifuged at 12,000 rpm for 5 min. Supernatants were collected, the precipitates were re-dissolved in 100 µL of extraction solvent, and the extraction procedure was repeated. The activities of supernatants and precipitates were measured in a γ-counter (1480 WIZARD, Fa. Perkin Elmer), and the extraction efficiencies were calculated as ratio of the radioactivity in the supernatant to the radioactivity in the original sample (supernatant + precipitate). The supernatants from both extractions were combined, concentrated at 70 °C under argon stream up to a remaining volume of 100 µL, and subsequently analyzed by analytical radio-HPLC with a gradient system as applied in Section 5.2.2.
3. Quantification of radiometabolites in mouse
Table 1. Radiometabolite analysis of [18F]RM273 in different tissues 30 min p.i.
Experiment 1 Experiment 2
Extraction Intact Extraction Intact Extraction Intact efficiency tracer efficiency tracer (%) efficiency tracer
Figure 2. Representative radio-HPLC chromatograms of the metabolism studies of [18F]RM273 in different tissues obtained at 30 min p.i.. (A) Brain, (B) Plasma, (C) Pancreas, (D)
Liver and (E) Bone marrow. Conditions:
Reprosil-Pur C18-AQ (250 x 4.6 mm; 5 μm); gradient (eluent A 10% MeCN/20 mM
NH4OAcaq.; eluent B 90 % MeCN/20 mM
(1 picture or pasted object on this page, not shown here)

[3] = In vitro stability of the radioligand in saline, PBS and TRIS-HCl buffer; type: physicochemical; details: 37 °C
Description: as §1
In vitro stability of [^18F]RM273 was determined in saline, phosphate-buffered saline (PBS), and TRIS (50 mM, pH 7.4) by incubation of approx. 5 MBq in 500 µL of each medium at 37 °C. Samples were taken after 30, 60, and 120 min and analyzed by analytical radio-HPLC with a gradient system as applied in Section 5.2.2.

[4] = molecular target: T1, σ2 receptors expressed in F98 cells (Rattus norvegicus, UniProt Q5U3Y7); assay: Homologous competition with membrane homogenates of F98 cells; type: binding
T1 construct: σ2 receptors expressed in F98 cells; endogenous in cells; host or cells: F98 rat glioma cells
T1 sequence (Q5U3Y7 1-176): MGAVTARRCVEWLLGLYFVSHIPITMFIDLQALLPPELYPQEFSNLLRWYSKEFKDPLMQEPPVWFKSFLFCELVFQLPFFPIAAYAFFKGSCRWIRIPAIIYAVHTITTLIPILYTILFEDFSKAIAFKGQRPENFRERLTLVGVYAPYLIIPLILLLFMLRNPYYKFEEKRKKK
Source text: Initially, we investigated the binding of [^18F]RM273 on rat brain slices by autoradiography to compare the distribution pattern with that of established σ2 receptor ligands and to examine the target specificity. The highest binding was found in the cortical areas and hippocampal structures. […] Accordingly, we proceeded to investigate, in a rat glioblastoma model, the potential suitability of [^18F]RM273 for molecular characterization of cancer. At first, homologous competition studies using membrane homogenates of the rat glioma cell line F98 were performed to determine the σ2 receptor binding parameters of [^18F]RM273 cells (Figure 3).
Binding affinity experiments to assess the Ki values of test compounds towards rat σ2 receptors, human σ1 receptors, and rat VAChT were performed according to protocols previously published by our group. The same protocol was used to determine the KD and Bmax values of RM273 towards σ2 receptors expressed in F98 cells by homologous competition analyzing the displacement of [^18F]RM273 by RM273.
Figure 3 Determination of KD and Bmax values of [^18F]RM273. Homologous competition studies were performed by incubation of [^18F]RM273 at 5–7 different molar activities either with membrane homogenates of F98 cells (open squares) or cryosections of rat brain (n = 2) obtained about three weeks after stereotactic implantation of F98 cells (tumor region = filled circles; contralateral region = open circles). […] For the F98 cell homogenate, the maximum number of binding sites Bmax was calculated by division of the specific binding by the fractional occupancy fp (Bmax = 36,000 fmol/mg protein).

- logD [1]: 1.78 ± 0.22
- Intact tracer ([2]; Bone Marrow, Mouse 2): 97%
- Intact tracer ([2]; Bone Marrow, Mouse 3): 97%
- Intact tracer ([2]; Brain, Mouse 1): 100%
- Intact tracer ([2]; Brain, Mouse 2): 100%
- Intact tracer ([2]; Brain, Mouse 3): 100%
- Intact tracer ([2]; Liver, Mouse 1): 34%
- Intact tracer ([2]; Liver, Mouse 2): 36%
- Intact tracer ([2]; Liver, Mouse 3): 28%
- Intact tracer ([2]; Pancreas, Mouse 1): 100%
- Intact tracer ([2]; Pancreas, Mouse 2): 96%
- Intact tracer ([2]; Pancreas, Mouse 3): 96%
- Intact tracer ([2]; Plasma, Mouse 1): 23%
- Intact tracer ([2]; Plasma, Mouse 2): 37%
- Intact tracer ([2]; Plasma, Mouse 3): 28%
- intact radioligand in brain ([2]; mice, n = 3): > 99%
- radioligand remained intact ([3]; TRIS-HCl buffer (50 mM, pH 7.4), 2 h): 100%
- radioligand remained intact ([3]; phosphate-buffered saline (PBS), 2 h): 94%
- radioligand remained intact ([3]; saline, 1 h): 95%
- radioligand remained intact ([3]; saline, 2 h): 90%
- Bmax equivalent ([4]; F98 cell homogenate, converted from fmol/mg protein): about 3600 fmol/mg tissue
- Bmax ([4]; F98 cell membrane homogenate): 36,000 fmol/mg protein
- Kd ([4]; F98 cell membrane homogenate, homologous competition): 12 nM
Compound: COc1cc2c(cc1OC)CN(CCCCn1ccc3ccc([18F])nc31)CC2 [[^18F]RM273]
